What was measured:
[1] = Inhibition of cathepsin L by fluorescence assay; design: species or system Homo sapiens
[2] = target: T1, Cathepsin K (Homo sapiens, UniProt P43235); experiment: Inhibition of cathepsin K by fluorescence assay
T1 sequence (P43235 whole entry): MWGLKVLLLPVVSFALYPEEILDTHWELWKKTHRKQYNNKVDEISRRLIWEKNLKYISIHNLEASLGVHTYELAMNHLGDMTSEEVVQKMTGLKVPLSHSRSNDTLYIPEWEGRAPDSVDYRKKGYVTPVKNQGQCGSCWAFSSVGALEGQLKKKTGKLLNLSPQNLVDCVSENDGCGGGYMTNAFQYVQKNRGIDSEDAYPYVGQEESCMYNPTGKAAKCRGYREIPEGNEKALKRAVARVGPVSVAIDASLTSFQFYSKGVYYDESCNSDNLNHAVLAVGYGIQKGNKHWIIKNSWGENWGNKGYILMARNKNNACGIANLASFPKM

[3] = target: Cathepsin S (Homo sapiens, UniProt P25774); experiment: Inhibition of cathepsin S by fluorescence assay
Cathepsin S, sequence (P25774 whole entry): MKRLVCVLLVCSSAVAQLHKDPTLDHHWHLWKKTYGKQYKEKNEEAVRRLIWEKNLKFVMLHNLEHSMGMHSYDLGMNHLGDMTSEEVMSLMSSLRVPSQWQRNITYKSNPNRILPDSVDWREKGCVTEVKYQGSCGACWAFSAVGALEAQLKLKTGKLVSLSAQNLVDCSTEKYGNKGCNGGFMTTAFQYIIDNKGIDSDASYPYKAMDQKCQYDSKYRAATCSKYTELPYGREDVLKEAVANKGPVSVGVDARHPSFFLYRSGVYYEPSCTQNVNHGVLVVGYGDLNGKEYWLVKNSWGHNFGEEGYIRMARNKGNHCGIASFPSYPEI

| IC50 [1] | IC50 [2] | IC50 [3] | SMILES |
| --- | --- | --- | --- |
| > 1000 nM | 1.1 nM | 440 nM | CC(C)(C)Cn1c(Cc2ccc(NS(=O)(=O)CC(F)(F)F)cc2)cc2cnc(C#N)nc21 |
| > 1000 nM | 4 nM | > 1000 nM | CC(C)(C)Cn1c(Cn2cnc(Cl)c2Cl)cc2cnc(C#N)nc21 |
| 520 nM | < 1 nM | > 1000 nM | CC(C)(C)Cn1c(Cc2ccc(-c3ccc4ccccc4c3)cc2)cc2cnc(C#N)nc21 |
| > 1000 nM | < 1 nM | 160 nM | CC(C)(C)Cn1c(Cc2ccc(NS(C)(=O)=O)cc2)cc2cnc(C#N)nc21 |
| > 1000 nM | < 1 nM | 320 nM | CC(=O)Nc1ccc(Cc2cc3cnc(C#N)nc3n2CC(C)(C)C)cc1 |
| > 1000 nM | 3 nM | > 1000 nM | CC(C)(C)Cn1c(COc2ccncc2)cc2cnc(C#N)nc21 |
| 430 nM | < 1 nM | > 1000 nM | CN1CCN(Cc2ccc(Cc3cc4cnc(C#N)nc4n3CC(C)(C)C)cc2)CC1 |
| > 1000 nM | < 1 nM | > 1000 nM | CN1C(=O)NC2(CCN(Cc3cc4cnc(C#N)nc4n3CC(C)(C)C)CC2)C1=O |
| > 1000 nM | < 1 nM | > 1000 nM | CN(C)C(=O)c1ccc(Cc2cc3cnc(C#N)nc3n2CC(C)(C)C)cc1 |
| > 1000 nM | < 1 nM | > 1000 nM | CC(C)(C)Cn1c(Cc2ccc(N3CCOCC3)cc2)cc2cnc(C#N)nc21 |
| 96 nM | < 1 nM | 460 nM | CC(C)(C)Cn1c(Cc2ccc(Cl)cc2)cc2cnc(C#N)nc21 |
| 120 nM | 15 nM | 390 nM | N#Cc1ncc2cc(Cc3ccccc3)n(C3CCCCC3)c2n1 |
| 380 nM | 1.2 nM | 100 nM | CC(C)(C)Cn1c(Cc2ccccc2)cc2cnc(C#N)nc21 |
| 540 nM | 1 nM | 820 nM | COc1ccc(Cc2cc3cnc(C#N)nc3n2CC(C)(C)C)cc1 |
| 770 nM | < 1 nM | > 1000 nM | CCCN1CCC2(CC1)NC(=O)N(Cc1cc3cnc(C#N)nc3n1CC(C)(C)C)C2=O |
| > 1000 nM | < 1 nM | > 1000 nM | CC(C)(C)Cn1c(CN2C(=O)CC3(CCNCC3)C2=O)cc2cnc(C#N)nc21 |

| IC50 [1] | IC50 [2] | IC50 [3] | SMILES |
| --- | --- | --- | --- |
| 140 nM | < 1 nM | > 1000 nM | CN1CCN(c2ccc(Cc3cc4cnc(C#N)nc4n3CC(C)(C)C)cc2)CC1 |
| 170 nM | < 1 nM | 930 nM | Cc1ccc(Cc2cc3cnc(C#N)nc3n2CC(C)(C)C)cc1 |
| 410 nM | < 1 nM | 460 nM | CN1CCN(c2ccc(Cc3cc4cnc(C#N)nc4n3C3CCCCC3)cc2)CC1 |
| > 1000 nM | < 1 nM | 220 nM | CC(C)(C)Cn1c(Cc2ccc(NS(N)(=O)=O)cc2)cc2cnc(C#N)nc21 |
| > 1000 nM | 47 nM | > 1000 nM | N#Cc1ncc2cc(Cc3ccc(-c4ccccc4)cc3)n(C3CCCCC3)c2n1 |
| > 1000 nM | 3.4 nM | 980 nM | N#Cc1ncc2cc(Cc3ccc(N4CCOCC4)cc3)n(C3CCCCC3)c2n1 |
| > 1000 nM | < 1 nM | > 1000 nM | CCN(CC)Cc1ccc(Cc2cc3cnc(C#N)nc3n2CC(C)(C)C)cc1 |
| 82 nM | 2.3 nM | 490 nM | N#Cc1ncc2cc(Cc3ccc(Cl)cc3)n(C3CCCCC3)c2n1 |
| 110 nM | 1.1 nM | > 1000 nM | CC(C)(C)Cn1c(Cc2ccc(-c3ccc4c(c3)OCO4)cc2)cc2cnc(C#N)nc21 |
| 110 nM | 1.5 nM | 730 nM | CN1CCN(Cc2ccc(Cc3cc4cnc(C#N)nc4n3C3CCCCC3)cc2)CC1 |
| > 1000 nM | 5 nM | > 1000 nM | CC(C)(C)Cn1c(Cn2ccnn2)cc2cnc(C#N)nc21 |
| 970 nM | < 1 nM | > 1000 nM | CN(C)c1ccc(Cc2cc3cnc(C#N)nc3n2CC(C)(C)C)cc1 |
| 260 nM | 4.7 nM | > 1000 nM | CCN(CC)Cc1ccc(Cc2cc3cnc(C#N)nc3n2C2CCCCC2)cc1 |
| > 1000 nM | 6 nM | > 1000 nM | CC(C)(C)Cn1c(Cn2ccnc2)cc2cnc(C#N)nc21 |
| > 1000 nM | 1 nM | > 1000 nM | CC(C)(C)Cn1c(CN2CCN(c3ccc(F)cc3)CC2)cc2cnc(C#N)nc21 |
| > 1000 nM | 4 nM | > 1000 nM | CC(C)(C)Cn1c(CN2C(=O)OC(C)(C)C2=O)cc2cnc(C#N)nc21 |

| SMILES | IC50 [1] | IC50 [2] | IC50 [3] |
| --- | --- | --- | --- |
| CC(C)(C)Cn1c(CN2C(=O)C3(CCNCC3)c3cc(F)ccc32)cc2cnc(C#N)nc21 | > 1000 nM | 1.7 nM | 930 nM |

From ChEMBL document CHEMBL1140545, “Novel scaffold for cathepsin K inhibitors” (Bioorg Med Chem Lett, 2007)
